Where “and” joins values, the source holds several entries; their conditions need not be identical. Equal entries are not always repeated. Where two headings read alike, the source gives them in different places.
Assays:
primary human VSMCs [1] = experiment: High-CaP medium-induced VSMC calcification; type: cell-based; details: for VSMC calcium deposition, % of high-CaP control: high-CaP medium, 5 days
Experimental: Incubation of VSMCs in high-CaP medium induced cell monolayer calcification after 5 days (Fig. 3b). […] The effect became significant from 0.1 µM (OEG2)2-IP4 on, where a 54% reduction in calcification was observed compared to untreated high-CaP medium-exposed cells.
Primary human VSMCs (C-12533, PromoCell, Heidelberg, Germany) were cultured according to the manufacturer's guidelines in SMC-2 culture medium (C-22062, PromoCell) and used up to passage 7. For calcification experiments cells were seeded onto 24-well plates (TPP) at a density of 20,000 cells/well and left to attach for 48–72 h. Complete medium was M199 medium (31150022, Thermo Fischer Scientific), supplemented with 10% v/v FBS (10270106, Thermo Fisher Scientific, Waltham, MA), 1% v/v penicillin/streptomycin (15140122, Thermo Fisher Scientific), and 4 mM L-glutamine (25030024, Thermo Fisher Scientific)[80]. Calcification of cell monolayers was induced as described previously[81] by treatment with CPP2-supplemented (50 µg Ca/mL) medium with or without test compounds (1, 3, 10, 30, and 100 µM) at a volume of 1 mL/well for 48 h at 37 °C, 5% CO2. In a second assay, calcification was induced similar to previous experiments[56] by cell treatment with or without test compounds (0.01, 0.1, 1, 10, and 100 µM) in complete medium supplemented with calcium (2.7 mM) and phosphate (2.5 mM) (CaP medium) at a volume of 1 mL/well for 5 days, and treatment medium was replaced on alternate days.
Calcium deposition on cell monolayers was assessed qualitatively by staining for calcium with 2% w/v Alizarin Red S aqueous solution (pH 4.2) (05600, Fluka Analytical). Cell monolayers in 24-well plates were washed with PBS (10010015, Thermo Fischer), fixed in 10% v/v NBF in PBS (F8775, Sigma-Aldrich) for 45 min at RT, washed with milli-Q water, incubated for 3 min with 300 µL Alizarin Red S solution, washed with milli-Q, and images were acquired using a Axiovert 35 microscope (Zeiss, Carl Zeiss Microscopy GmbH, Jena, Germany) at ×100 magnification. Calcium quantitation was performed after washing cells with PBS and then decalcifying cell monolayers with 0.1 M HCl overnight at 4 °C. Acidic supernatants were centrifuged (10,000 × g, 4 °C, 10 min) and calcium content was assessed using the calcium colorimetric assay.

CPPs = experiment: DLS of CPP hydrodynamic diameter in human serum; parameters: Dh: unit not given here
Experimental: To confirm the screening assay data, the hydrodynamic diameter of the CPPs was measured by dynamic light scattering (DLS).
Human serum studies were performed under sterile conditions at 37 °C as described previously. […] For serum background measurements, saline, human serum, and 100 mM HBS (pH 7.4 (RT)) were combined in a volume ratio of 2:8:10. […] The mixtures were incubated with continual slow mixing on a rotator (240 rotations/min, IKA KS 130 Basics Orbital Shaker) at 37 °C. After 1, 3, and 5 h of incubation, 500 µL aliquots were drawn under sterile conditions to prevent microorganism growth contamination and subjected to DLS analysis at 37 °C. For each experiment, three replicates were produced and a single measurement per sample and time point was performed.

PK in healthy rats, s.c. = type: in vivo, male Sprague-Dawley rats; details: for plasma concentration: unit not given
primary human VSMCs [2] = experiment: VSMC viability (MTS) in high-CaP medium; type: cell-based
[3] = VSMC viability (MTS) in high-CaP medium; type: cell-based, human; details: human, primary human VSMCs, read-out: VSMC viability (MTS), % of medium control
[4] = Inhibition of calcium phosphate precipitation in serum-free buffer; type: physicochemical; details: 10 mM calcium, 6 mM phosphate, HBS pH 7.4, 90 min, 37 °C
Excerpt: calcification in organs other than these are available from the present study.
We have included the latest research on CPPs and the respective literature now in the introduction (p. 4, line 74 ff.).
The way I see it the compound stabilizes CPP1, which can be more easily cleared unless it occurs in very high amounts and cannot be cleared at all. Therefore it is important to measure renal mineral clearance ± compound (see comment for Fig 3)
We have amended the discussion in the revised manuscript with respect to the hypothesis on the mechanism of action of (OEG2)2-IP4 postulated by the reviewer. (p. 32, line 614 ff.). We have further addressed the mechanism of action in response to Reviewer #4 Comment 3.
Did they test if (OEG2)2-IP4 compound alone stabilized supersaturated Ca and Pi solutions by forming colloids akin to CPP? […]
and phosphate and formation of hydroxyapatite with the assay from Heiss, A. et al.5. In brief, compound, 10 mM calcium solution and 6 mM phosphate solution in Hepes buffered saline (pH 7.4, RT) were incubated for 90 min at 37 °C and centrifuged at 8 000 x g for 5 min. The recovered pellet was dissolved in 1% (v/v) acetic acid and the calcium content quantified […]. (OEG2)2-IP4 alone stabilized supersaturated calcium and phosphate in […]
CPP1s (Rh < 100 nm) were detected by dynamic light scattering. […]
synergistic effect of (OEG2)2-IP4 with endogenous calcification inhibitors, such as fetuin-A in […]
that are not physiological (no serum), we prefer not to include these additional data in the […]

[5] = Supl.Fig.4 panel b, time 1 (unit not given)
[6] = male, Sprague-Dawley, rat, plasma, sc, 100 mg/kg s.c.

## O=P(O)(O)O[C@H]1[C@H](OP(=O)(O)O)[C@@H](OP(=O)(O)O)[C@H](OP(=O)(O)O)[C@@H](OP(=O)(O)O)[C@H]1OP(=O)(O)O [IP6, myo-Inositol hexakisphosphate]
Primary human VSMCs [1]; 0.01 µM, replicates Fig. 3b
  VSMC calcium deposition, % of high-CaP control: 45.78% and 57.03% and 44%
Primary human VSMCs [1]; 1 µM
  VSMC calcium deposition, % of high-CaP control: 43.35% and 32.19% and 33.2%
Primary human VSMCs [1]; 10 µM
  VSMC calcium deposition, % of high-CaP control: 27.4% and 34.12% and 27.96%
Primary human VSMCs [1]; all doses studied (up to 100 µM)
  reduction of VSMC mineralization: 50–70%
CPPs; [5]
  Dh: 88.6 and 105.8 and 120.4
  PDI: 0.387 and 0.354 and 0.351
CPPs; Supl.Fig.4 panel b, time 3
  Dh: 117.9 and 117.1 and 132.1
  PDI: 0.358 and 0.359
CPPs; Supl.Fig.4 panel b, time 5
  Dh: 120.1 and 126.7 and 139.4
  PDI: 0.352 and 0.371 and 0.353
CPPs; Supl.Fig.4 panel d, time 1
  Dh: 134.2 and 137.5 and 124.1
  PDI: 0.243 and 0.215 and 0.244
CPPs; Supl.Fig.4 panel d, time 3
  PDI: 0.263 and 0.405 and 0.247
CPPs; Supl.Fig.4 panel d, time 5
  Dh: 829.4 and 949 and 968.9
  PDI: 0.375 and 0.401 and 0.371
CPPs; Supl.Fig.4 panel e, time 1
  Dh: 121.9 and 131.6 and 127.5
  PDI: 0.239 and 0.253 and 0.225
CPPs; Supl.Fig.4 panel e, time 3
  Dh: 917.4 and 1163.2 and 967.1
  PDI: 0.279 and 0.365 and 0.211
CPPs; Supl.Fig.4 panel e, time 5
  Dh: 1239.9 and 912.5 and 1030.4
  PDI: 0.335 and 0.413 and 0.307
CPPs; Supl.Fig.4 panel f, time 1
  Dh: 151.1 and 134.7 and 128.6
  PDI: 0.231 and 0.246 and 0.242
CPPs; Supl.Fig.4 panel f, time 3
  Dh: 1215.5 and 1246.8 and 894.9
CPPs; Supl.Fig.4 panel f, time 5
  Dh: 938.5 and 1174.7 and 1102.1
  PDI: 0.341 and 0.349 and 0.237
CPPs; Supl.Fig.4 panel g, time 1
  Dh: 161.6 and 144.6 and 111.2
  PDI: 0.205 and 0.233 and 0.237
CPPs; Supl.Fig.4 panel g, time 3
  PDI: 0.21 and 0.2 and 0.256
CPPs; Supl.Fig.4 panel g, time 5
  PDI: 0.256 and 0.391 and 0.263
CPPs; Supl.Fig.4 panel h, time 1
  Dh: 140.9 and 155.6 and 124.7
  PDI: 0.242 and 0.211 and 0.261
CPPs; Supl.Fig.4 panel h, time 3
  PDI: 0.224 and 0.271 and 0.403
CPPs; Supl.Fig.4 panel h, time 5
  Dh: 698.6 and 1132.6 and 867.3
  PDI: 0.295 and 0.332 and 0.35
CPPs; Supl.Fig.4 panel i, time 1
  Dh: 144.5 and 156.7 and 136.9
  PDI: 0.23 and 0.222 and 0.25
CPPs; Supl.Fig.4 panel i, time 3
  Dh: 161.1 and 174.2 and 140.3
  PDI: 0.256 and 0.273 and 0.247
CPPs; Supl.Fig.4 panel i, time 5
  Dh: 832.1 and 1065.7 and 818.8
  PDI: 0.38 and 0.379 and 0.375
PK in healthy rats, s.c.; 10 mg/kg s.c.
  plasma concentrations (below lower limit of quantification): < 0.772 µM
PK in healthy rats, s.c.; 10 mg/kg s.c., LLOQ = 772 nM
  Cmax: < LLOQ
PK in healthy rats, s.c.; 100 mg/kg s.c., 5 min
  plasma concentration: 20.1 and 17.5 and 23.6
PK in healthy rats, s.c.; 100 mg/kg s.c., 0.5 h
  plasma concentration: 13.6 and 19.8 and 10.3
PK in healthy rats, s.c.; [6]
  AUC(0-inf): 22.4 µM·h
  Tmax: 12 min
  half-life: 29 ± 15 min
PK in healthy rats, s.c.; male, Sprague-Dawley, rat, plasma, sc, 100 mg/kg s.c., t = 90 min (Fig. 4d; tlast 360 in Suppl. Table 2)
  AUC(0-t): 19.4 µM·h
PK in healthy rats, s.c.; male, Sprague-Dawley, rat, plasma, sc, 100 mg/kg s.c., read-out: Cmax
  Cmax: 33 ± 10 µM
PK in healthy rats, s.c.; male, Sprague-Dawley, rat, plasma, sc, read-out: mean residence time (MRT) (converted)
  MRT: 45 min
Primary human VSMCs [2]; 0.01 µM in high-CaP medium, replicates Fig. 3d
  VSMC viability (MTS), % of medium control: 67.31% and 30.78% and 56.19%
Primary human VSMCs [2]; 0.1 µM in high-CaP medium
  VSMC viability (MTS), % of medium control: 69.48% and 36.65% and 58.54%
Primary human VSMCs [2]; 1 µM in high-CaP medium
  VSMC viability (MTS), % of medium control: 54.02% and 63.76%
Primary human VSMCs [2]; 10 µM in high-CaP medium
  VSMC viability (MTS), % of medium control: 84.96% and 80.54%
Primary human VSMCs [2]; 100 µM in high-CaP medium
  VSMC viability (MTS), % of medium control: 97.34% and 86.99%
[3]; 1 µM in high-CaP medium
  viability at 5 days, 1 µM: 68.8%
[3]; 10 µM in high-CaP medium
  viability at 5 days, 10 µM: 69.9%
[3]; 100 µM in high-CaP medium
  viability at 5 days, 100 µM: 78.7%
[4]
  inhibition of calcium phosphate precipitation, serum-free: barely effective
